This is an account of results in ChEMBL document CHEMBL2385027, “Evaluation of 2'-α-fluorine modified nucleoside phosphonates as potential inhibitors of HCV polymerase” (Bioorg Med Chem Lett, 2013).

Data set [1] is described as follows: Cytotoxicity against human HuH7 cells. It is filed as cell-based, Huh-7.
Data set [2] has as its system Hepatitis C virus. As to the kind of experiment: Antiviral activity against Hepatitis C virus infected in human Huh7 cells assessed as inhibition of HCV replication. It is filed as functional, organism-based, Hepacivirus hominis. As to conditions: Huh-7.
Data set [3] is described as follows: Cytostatic activity against human MT4 cells. The format is cell-based.
In data set [4] the test system is Hepatitis C virus. The data set is described as follows: Inhibition of HCV 1b NS5b polymerase. More on the design: species or system Hepatitis C virus subtype 1b.

Bounds are passed on as bounds.

`CCCCOC(=O)[C@H](C)NP(=O)(CC[C@H]1O[C@@H](n2cnc3c(N)ncnc32)[C@H](F)[C@@H]1O)N[C@@H](C)C(=O)OCCCC`: the half-maximal cytotoxic concentration (CC50) in data set [1] is 24 µM; in data set [3], 36 µM. In addition, the EC50 in the data set on Hepatitis C virus [2] worked out at 11 µM. Taken in the same sequence, the figures for `CCCCOC(=O)[C@H](C)NP(=O)(/C=C/[C@H]1O[C@@H](n2cnc3c(N)ncnc32)[C@H](F)[C@@H]1O)N[C@@H](C)C(=O)OCCCC` were 113 µM, 18 µM and 58 µM. For the compound `Nc1ccn([C@@H]2O[C@H](CO)[C@@H](O)[C@H]2F)c(=O)n1`, half-maximal inhibition in the data set with Hepatitis C virus [4] (IC50) was put at 1.85 µM.

The compound `Nc1ccn([C@@H]2O[C@H](/C=C/P(=O)(O)O)[C@@H](O)[C@H]2F)c(=O)n1` [listing 1 of 2 here] registered a 50% cytotoxic concentration (CC50) in data set [1] greater than 250 µM. Further, the EC50 in the data set on Hepatitis C virus [2] is 76 µM. Taken in the same sequence, the figures for `O=c1ccn([C@@H]2O[C@H](COP(=O)(O)O)[C@@H](O)[C@H]2F)c(=O)[nH]1` were greater than 250 µM and greater than 250 µM. Turning to `CCCCOC(=O)[C@H](C)NP(=O)(/C=C/[C@H]1O[C@@H](n2ccc(=O)[nH]c2=O)[C@H](F)[C@@H]1O)N[C@@H](C)C(=O)OCCCC`, the half-maximal cytotoxic concentration (CC50) in data set [1] was greater than 250 µM; in data set [3], 92 µM. Moreover, the 50% effective concentration (EC50) in the data set with Hepatitis C virus [2] was 14.5 µM. `Nc1ncnc2c1ncn2[C@@H]1O[C@H](/C=C/P(=O)(O)O)[C@@H](O)[C@H]1F` [listing 1 of 2 here] came in with a 50% cytotoxic concentration (CC50) in data set [1] greater than 250 µM. For the same compound, in the data set on Hepatitis C virus [2], the EC50 came to 132 µM. In the data set on Hepatitis C virus [4], `O=c1ccn([C@@H]2O[C@H](CO)[C@@H](O)[C@H]2F)c(=O)[nH]1` came in with an IC50 of 12.8 µM. Still for that read-out and setting: with `Nc1ncnc2c1ncn2[C@@H]1O[C@H](CCP(=O)(O)O)[C@@H](O)[C@H]1F` [listing 1 of 2 here] the figure was 4.6 µM.

In data set [1], `Nc1ccn([C@@H]2O[C@H](COP(=O)(O)O)[C@@H](O)[C@H]2F)c(=O)n1` gave a half-maximal cytotoxic concentration (CC50) greater than 250 µM. Further, in the data set on Hepatitis C virus [2], the EC50 was found to be 15 µM. Taken in the same sequence, the figures for `Nc1ncnc2c1ncn2[C@@H]1O[C@H](COP(=O)(O)O)[C@@H](O)[C@H]1F` were greater than 250 µM and 134 µM. `CCCCOC(=O)[C@H](C)NP(=O)(/C=C/[C@H]1O[C@@H](n2ccc(N)nc2=O)[C@H](F)[C@@H]1O)N[C@@H](C)C(=O)OCCCC`: the CC50 in data set [1] and in data set [3] was greater than 250 µM in each case. Besides, the concentration giving a half-maximal response (EC50) in the data set with Hepatitis C virus [2] came out at 134 µM.

Take `Nc1ccn([C@@H]2O[C@H](/C=C/P(=O)(O)O)[C@@H](O)[C@H]2F)c(=O)n1` [listing 2 of 2 here]: the 50% inhibitory concentration (IC50) in the data set on Hepatitis C virus [4] is 1.9 µM. Turning to `Nc1ncnc2c1ncn2[C@@H]1O[C@H](CCP(=O)(O)O)[C@@H](O)[C@H]1F` [listing 2 of 2 here], in data set [1], the 50% cytotoxic concentration (CC50) is greater than 500 µM. The half-maximal effective concentration (EC50) with Hepatitis C virus [2] was greater than 500 µM.

`Nc1ncnc2c1ncn2[C@@H]1O[C@H](/C=C/P(=O)(O)O)[C@@H](O)[C@H]1F` [listing 2 of 2 here] returned an IC50 in the data set with Hepatitis C virus [4] of 2.1 µM.

In turn, `O=c1ccn([C@@H]2O[C@H](/C=C/P(=O)(O)O)[C@@H](O)[C@H]2F)c(=O)[nH]1` [listing 1 of 2 here] had a CC50 in data set [1] greater than 250 µM. Moreover, the concentration for a half-maximal effect (EC50) in the data set on Hepatitis C virus [2] was greater than 250 µM.

On to `O=c1ccn([C@@H]2O[C@H](/C=C/P(=O)(O)O)[C@@H](O)[C@H]2F)c(=O)[nH]1` [listing 2 of 2 here], for which half-maximal inhibition in the data set with Hepatitis C virus [4] (IC50) was put at 31 µM. Same read-out and setting: the value for `Nc1ncnc2c1ncn2[C@@H]1O[C@H](CO)[C@@H](O)[C@H]1F` [2'-BETA-FLUORO-2',3'-DEOXYADENOSINE] was 102 µM.

Usually CC50 stands for the concentration that lowers cell viability or growth by half. The term EC50 denotes the concentration needed to bring the measured effect to its halfway point. A word on the IC50: it is the concentration at which inhibition is half-maximal. Low readings indicate inhibition by little substance, high ones a need for much substance.
